Measured values published in patent US5840677A, “Boronic acid or borinic acid derivatives as enzyme stabilizers” (Novo Nordisk A/S, priority 1993, dated 1998).

Key:
Savinase [1] = molecular target: T1, Savinase (Lederbergia lenta, UniProt P29600); experiment: biochemical; set-up: species or system Bacillus; conditions: substrate SAAPFpNA; 0.1 M Tris-HCl pH 8.6; 25° C.; Savinase 1-10^-10 -3×10^-10 M
T1 construct: purchased Novo Nordisk A/S
T1 sequence (P29600 1-269): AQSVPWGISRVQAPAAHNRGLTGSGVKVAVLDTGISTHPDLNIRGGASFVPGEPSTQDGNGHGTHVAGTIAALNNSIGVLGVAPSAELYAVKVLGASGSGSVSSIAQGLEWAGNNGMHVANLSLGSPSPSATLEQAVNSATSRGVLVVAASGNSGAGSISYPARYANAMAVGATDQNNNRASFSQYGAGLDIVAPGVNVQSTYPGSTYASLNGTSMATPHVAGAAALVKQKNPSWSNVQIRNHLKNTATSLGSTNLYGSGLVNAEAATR
Text: (§1) c) Determination of Ki : The inhibition constant Ki may be determined by using standard methods, for reference see Keller et al, Biochem. Biophys. Res. Com. 176, 1991, pp.401-405; J. Bieth in Bayer-Symposium "Proteinase Inhibitors", pp. 463-469, Springer-Verlag, 1974 and Lone Kierstein Hansen in "Determination of Specific Activities of Selected Detergent Proteases using Protease Activity, Molecular Weights, Kinetic Parameters and Inhibition Kinetics", PhD-report, Novo Nordisk A/S and University of Copenhagen, 1991.
(§2) The inhibition constants Ki, for the inhibition of Alcalase and Savinase respectively, were determined using standard methods under the following conditions:
(§3) Substrate: Succinyl-Alanine-Alanine-Proline-Phenylalanine-para-nitro-anilide=SAAPFpNA(Sigma S-7388).
(§4) Buffer: 0.1 M Tris-HCl pH 8.6; 25° C.
(§5) Enzyme concentration in assay
(§6) The initial rate of substrate hydrolysis was determined at nine substrate concenterations in the range of 0.01 to 2 mM using a Cobas Fara automated spectrophotometer. The kinetic parameters Vmax and Km were determined using ENZFITTER (a non-linear regression data analysis program). kcat was calculated from the equation Vmax =kcat X[Eo ]. The concentration of active enzyme [Eo ] was determined by active site titration using tight-binding protein proteinase inhibitors. The inhibition constant Ki was calculated from plots of Km /kcat as a function of the concentration of inhibitor. The inhibitors were assumed to be 100% pure and the molar concentrations were determined using weighing numbers and molecular weights.

Alcalase = molecular target: T2, Alcalase (Bacillus licheniformis, UniProt P00780); experiment: biochemical; conditions: substrate SAAPFpNA; 0.1 M Tris-HCl pH 8.6; 25° C.; Alcalase 1×10^-10 -3×10^-10 M
T2 construct: purchased Novo Nordisk A/S
T2 sequence (P00780 106-379): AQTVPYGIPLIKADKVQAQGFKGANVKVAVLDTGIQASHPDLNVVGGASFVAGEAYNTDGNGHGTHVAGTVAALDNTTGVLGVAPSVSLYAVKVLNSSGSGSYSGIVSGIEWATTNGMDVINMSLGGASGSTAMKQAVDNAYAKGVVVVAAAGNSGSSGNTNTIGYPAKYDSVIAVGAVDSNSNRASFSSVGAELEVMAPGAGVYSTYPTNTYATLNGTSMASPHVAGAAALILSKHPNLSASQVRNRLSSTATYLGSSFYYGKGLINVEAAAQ
Text: as §1, §2, §3, §4, §5, §6

Savinase [2] = molecular target: T1, Savinase; experiment: Storage Stability Test in Liquid Detergent (improvement factor IFI, inhibition of protease); assay type: biochemical, Bacillus; conditions: US-type liquid detergent, 1% w/w Savinase + 1% w/w Lipolase, 0, 3, 7 and 14 days at 30° C.
Procedure: a) Storage Stability Test in Licuid Deterrent: Enzyme(s) and stabilizer are added to a liquid detergent formulation and stored at well defined conditions. The enzyme activity of each enzyme is determined as a function of time, e.g. after 0, 3, 7 and 14 days.
To calculate the inhibition efficiency from the storage stability date a reaction mechanism is proposed.
From these reactions three coupled differential equations are derived describing the deactivation of P, L and PI. The reaction rate constants are derived from storage stability data by the use of a parameter estimation method (Gauss-Newton with the Levenberg modification). The storage stability data give the concentration of (P+PI) and L as a function of time.
Reaction IV is excluded from the system to reduce the number of parameters thereby describing the stability of the inhibited enzyme by only one reaction rate constant (from equation V).
In all experiments there is a large surplus of inhibitor molecules compared to protease molecules, i.e. a constant concentration of inhibitor (corresponding to the added amount of inhibitor) is a reasonable assumption.
An improvement factor is thus derived: [formula] IFI measures the inhibition efficiency given by the inhibition constants KI from reaction III.
Different boronic and borinic acid derivative enzyme stabilizers were also tested in storage stability tests in liquid detergents using the method described previously under the following conditions: […]

subtilisin = conditions: Keller et al, Biochem. Biophys. Res. Com. 176, 1991; cited from earlier work
proteolytic enzymes = conditions: prior art; cited from earlier work
[3] = stabilizer 5 mmole/kg, relative to boric acid

| Compound | Ki (Savinase [1]) [µM] | Ki (Alcalase) [µM] | Improvement factor IFI (Savinase [2]; [3]) | capacity as subtilisin inhibitor (subtilisin) | Improvement factor IFI (Savinase [2]; reference, boric acid 160 mmole/kg) | inhibition of proteolytic enzymes (proteolytic enzymes) |
| --- | --- | --- | --- | --- | --- | --- |
| OB(O)c1cc2ccccc2o1 | 800 | 1000 | – | – | – | – |
| Cc1cc(B(O)O)c(C)s1 [2,5-dimethylthiophene-3-boronic acid] | 6000 | 3000 | 7 | – | – | – |
| OB(O)CCC1CCCCC1 [2-cyclohexylethyl] | – | – | – | poor inhibitors | – | – |
| OB(O)c1cc(Cl)cc(Cl)c1 [3,5-dichlorophenylboronic acid] | – | – | – | particularly effective | – | – |
| OB(O)c1sccc1Br [3-Bromothiophene-2-boronic acid] | 2000 | 2000 | – | – | – | – |
| COc1ccsc1B(O)O [3-Methoxythiophene-2-boronic acid] | 1200 | 3000 | 8 | – | – | – |
| OB(O)CCc1cccc2[nH]c3ccccc3c12 [4-Carbazole ethyl boronic acid] | 2000 | 1000 | – | – | – | – |
| Cc1csc(B(O)O)c1 [4-Methylthiophene-2-boronic acid] | 3000 | 1800 | 4 | – | – | – |
| COc1ccc(B(O)O)cc1 [4-methoxyphenyl] | – | – | – | very good inhibitors | – | – |
| OB(O)c1ccc(Br)s1 [5-Bromothiophene-2-boronic acid] | 200 | 400 | 124 | – | – | – |
| OB(O)c1ccc(Cl)s1 [5-Chlorothiophene-2-boronic acid] | 200 | 300 | 123 | – | – | – |
| CCc1ccc(B(O)O)o1 [5-Ethylfuran-2-boronic acid] | 3000 | 2000 | – | – | – | – |
| CCc1ccc(B(O)O)s1 [5-Ethylthiophene-2-boronic acid] | 900 | 700 | 66 | – | – | – |
| COc1ccc(B(O)O)o1 [5-Methoxyfuran-2-boronic acid] | 3000 | 2000 | – | – | – | – |
| COc1ccc(B(O)O)s1 [5-Methoxythiophene-2-boronic acid] | 1000 | 2000 | 14 | – | – | – |
| Cc1ccc(B(O)O)s1 [5-Methylthiophene-2-boronic acid] | 3000 | 2000 | 12 | – | – | – |
| CCCc1ccc(B(O)O)s1 [5-n-Propylthiophene-2-boronic acid] | 3000 | 1500 | – | – | – | – |

| Compound | Ki (Savinase [1]) [µM] | Ki (Alcalase) [µM] | Improvement factor IFI (Savinase [2]; [3]) | capacity as subtilisin inhibitor (subtilisin) | Improvement factor IFI (Savinase [2]; reference, boric acid 160 mmole/kg) | inhibition of proteolytic enzymes (proteolytic enzymes) |
| --- | --- | --- | --- | --- | --- | --- |
| OB(O)c1cc2ccccc2o1 [Benzofuran-2-boronic acid] | – | – | 190 | – | – | – |
| OB(O)O [Boric acid, reference compound] | – | – | – | – | 1 | reversibly inhibit proteolytic enzymes |
| OB(O)c1cccc2oc3ccccc3c12 [Dibenzofuran-1-boronic acid] | 1500 | 1100 | 9 | – | – | – |
| OB(O)c1cccc2c1oc1ccccc12 [Dibenzofuran-4-boronic acid] | 1100 | 900 | 19 | – | – | – |
| OB(O)c1cccc2sc3ccccc3c12 [Dibenzothiophene-1-boronic acid] | 1500 | 900 | 12 | – | – | – |
| OB(c1ccccc1)c1ccccc1 [Diphenylborinic acid (ethanolamine complex)] | 4000 | 2000 | – | – | – | – |
| OB(O)c1ccco1 [Furan-2-boronic acid] | 4000 | 3000 | 13 | – | – | – |
| OB(O)c1ccoc1 [Furan-3-boronic acid] | 7000 | 10000 | 32 | – | – | – |
| OB(O)c1cc2ccccc2s1 [Thionaphthrene-1-boronic acid] | 3000 | 2000 | 20 | – | – | – |
| OB(O)c1cccs1 [Thiophene-2-boronic acid] | 2000 | 2000 | 72 | – | – | – |
| OB(O)c1ccsc1 [Thiophene-3-boronic acid] | 2000 | 2000 | 63 | – | – | – |
| CCCCB(O)O [butyl] | – | – | – | poor inhibitors | – | – |
| CB(O)O [methylboronic acid] | – | – | – | poorest inhibitor | – | – |
| OB(O)c1ccccc1 [phenyl] | – | – | – | very good inhibitors | – | – |
| Picoline-2-boronic acid | 4000 | 3000 | – | – | – | – |
| acetamidobenzene boronic acid | – | – | – | – | – | superior inhibitor of proteolytic enzymes |
